PubChem BioAssay (NCI)
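Where inhibition never reached the appropriate level, the endpoint shown equals the highest concentration tested. Otherwise, values were interpolated linearly from a five-concentration, 48-hour dose response in 96-well plates. GI50 = concentration required for 50% inhibition of growth. Definition used: TGI = concentration required for complete inhibition of growth.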

Tests used:
Test in all cases: NCI anticancer screen, dose series, 48 h
[1] = test system: EKVX NSCLC
[2] = test system: HCT-15 colon
[3] = test system: K-562 leukemia
[4] = test system: NCI-H460 lung
[5] = test system: OVCAR-3 ovarian
[6] = test system: SF-295 CNS
[7] = test system: SN12C renal
[8] = test system: U251 CNS
[9] = test system: UO-31 renal
[10] = test system: BT-549 breast

| Compound | TGI [1] [µM] | TGI [2] [µM] | TGI [3] [µM] | TGI [4] [µM] | TGI [5] [µM] | TGI [6] [µM] | TGI [7] [µM] | TGI [8] [µM] | TGI [9] [µM] | GI50 [10] [µM] | TGI [10] [µM] | GI50 [1] [µM] | GI50 [2] [µM] | GI50 [4] [µM] | GI50 [5] [µM] | GI50 [6] [µM] | GI50 [7] [µM] | GI50 [8] [µM] | GI50 [9] [µM] | GI50 [3] [µM] |
| --- | --- | --- | --- | --- | --- | --- | --- | --- | --- | --- | --- | --- | --- | --- | --- | --- | --- | --- | --- | --- |
| OC1OCC(COc2cc(Cl)c(Cl)cc2Cl)OC1O (configuration not stated) | 81.9 | 44.6 | > 100 | > 100 | 69.5 | > 100 | > 100 | > 100 | > 100 |  |  |  |  |  |  |  |  |  |  |  |
| COc1cc(/C=C2\[C@@H]3NC(Cc4c(OC)c(C)c(OC)c(OC)c43)C(=O)N2Cc2ccccc2)c(OC)c(C)c1OC | 90.5 |  | > 100 | 60.7 | > 100 | > 100 | > 100 | > 100 | 80.5 |  |  |  |  |  |  |  |  |  |  |  |
| COc1ccc(C(=O)/C=C/c2ccc(OCc3cccc(C(F)(F)F)c3)c(OC)c2)cc1OC | > 1000 | > 1000 |  | > 1000 | > 1000 | > 1000 | > 1000 | > 1000 | > 1000 | 38.1 | 476 | 45.8 | 42 | 51.7 | 48.4 | 70.3 | 74.4 | 61.4 | 47.3 |  |
| CC1C(c2ccccc2)N(C)C(c2ccccc2)C(C)C1(O)c1ccccc1 (configuration not stated) | > 100 | > 100 | > 100 | > 100 | > 100 | > 100 | > 100 | > 100 | > 100 |  |  |  |  |  |  |  |  |  |  |  |
| O=C(NC1CCC[C@H]1OC(=O)c1ccccc1)c1ccccc1 (some centres not stated) | > 100 |  | > 100 | > 100 | > 100 | > 100 | > 100 | > 100 | > 100 |  |  |  |  |  |  |  |  |  |  |  |
| Cc1cc(OCc2ccc(C(F)(F)F)cc2)c2c(c1)C(=O)C=C(NCCN1CCCC1)C2=O |  | 4.82 | 6.18 | 3.43 | 6.47 | 4 | 28.3 | 3.45 | 4.93 | 2.05 | 5.36 |  | 1.95 | 1.84 | 2.52 | 1.88 | 9.86 | 1.72 | 2.19 | 2.41 |
| CC1(c2ccc(F)cc2)C2C(=O)NC(=O)C1C(=O)NC2=O (configuration not stated) | > 100 | > 100 | > 100 | > 100 | > 100 | > 100 | > 100 |  | > 100 |  |  |  |  |  |  |  |  |  |  |  |
| C=CCC1(CN(C)C)CC/C(=C\c2ccc3c(c2)OCO3)C1=O (configuration not stated) | 66.9 | > 100 | > 100 | > 100 | > 100 | > 100 | > 100 | > 100 | > 100 |  |  |  |  |  |  |  |  |  |  |  |
| Nc1nc2cc(Cl)ccc2n1N | > 100 | > 100 | > 100 |  |  | > 100 | > 100 | > 100 | > 100 |  | > 100 |  |  |  |  |  |  |  |  |  |
| CCOC(=O)C1=C(Nc2ccc(OC)cc2)C(N)=NC1=N |  | > 100 | > 100 | > 100 | 6.5 | 8.32 | > 100 | > 100 | > 100 | 5.37 | > 100 |  | 1.83 | 3.73 | 2.49 | 2.71 | 5.14 | 3.81 | 6.29 | 3.02 |
| COc1cc2c(cc1OCC(=O)Nc1ccc(Cl)cc1C(=O)c1ccccc1Cl)N=CC1CCCN1C2=O (configuration not stated) | 35.1 | 26 | 19.9 | 27.1 | 14.6 | 22.9 | 27.8 | 19.3 | 20.5 |  |  | 20.3 | 12.6 | 11.1 | 3.72 | 8.48 | 13.8 | 6.36 | 7.97 | 4.23 |
| CCC(O)CCCCCCCCCCCCCCC(=O)O (configuration not stated) | > 100 |  | > 100 | > 100 | > 100 | > 100 | > 100 | > 100 | > 100 |  |  |  |  |  |  |  |  |  |  |  |
| CCCCCCCCN(CCCCCCCC)CC(O)c1cc(-c2ccccc2)nc2ccc(OC)cc12 (configuration not stated) | > 100 | > 100 |  | > 100 | 61.2 | > 100 | > 100 | 96.2 | > 100 | 23.9 | 64 | > 100 | 23.2 | > 100 | 21.2 | > 100 | 29.7 | 27.8 | 34.4 |  |
| Cc1ccc(/C=C2\CCCCC2=O)cc1 | > 100 | > 100 | 77.4 | > 100 | > 100 | > 100 | > 100 | > 100 | > 100 |  |  |  |  |  |  |  |  |  |  |  |
| COc1ccc(N=NC2=C(O)CCC2=O)cc1 | > 100 | > 100 | > 100 | > 100 | > 100 | > 100 | > 100 | > 100 | > 100 |  |  |  |  |  |  |  |  |  |  |  |
| CC(C)N1CC2CC(CN(C(=O)c3ccc(Cl)cc3)C2)C1 | > 100 | > 100 | > 100 | > 100 | > 100 | > 100 | > 100 | > 100 | > 100 |  |  |  |  |  |  |  |  |  |  |  |
| CCCCCCCCCCCCCCNCC(OC)OC | 34.2 | 25.7 |  | 34.1 | 32.6 | 34.1 | 30.9 | 31.6 | 25.7 |  |  |  |  |  |  |  |  |  |  |  |
| CCCCCCC(=O)NC1=C(N2CC2)C(=O)C(NC(=O)CCCCCC)=C(N2CC2)C1=O |  |  |  | > 100 | 4.85 | 34 |  | > 100 | > 100 | 31.3 | > 100 |  |  | 0.677 | 1.53 | 0.444 |  | 2.88 | 6.15 |  |
| O=C1c2ccccc2C(=O)N1CC#CCO | > 100 | > 100 | > 100 | > 100 | > 100 | > 100 | > 100 | > 100 | > 100 |  |  |  |  |  |  |  |  |  |  |  |
| Cc1cc(-c2ccccc2)nc(Nc2cc3ccccc3[nH]2)n1 | > 100 | > 100 | > 100 | > 100 | > 100 | > 100 | > 100 | > 100 | > 100 |  |  |  |  |  |  |  |  |  |  |  |
